Measurements as given in patent US4778818A, “Substituted 2-(heteroaryl-2-propenyl)phenols useful as anti-inflammatory agents” (Merck & Co., Inc., priority 1987, dated 1988).

Columns and labels:
[1] = test system: inflammatory responses elicited by topically applied phorbol myristate acetate (PMA) or topically applied archidonic acid (AA) in mouse ear; assay: Topical mouse ear assay (TME); type: in vivo, mice
Protocol: The topical mouse ear assay (TME) was used to evaluate the novel compounds of the present invention for its effect on inflammatory responses elicited by topically applied phorbol myristate acetate (PMA) or topically applied archidonic acid (AA).
TABLE I Topical Mouse Ear Assay
Method: The right ears of mice (5 mice per group) were treated topically with either […] or 1000 μg AA alone or with the test compound in 25 μl of vehicle. The vehicle was water/pyridine/acetone (1:2:97). A control group of mice received the vehicle only. The mice were allowed food and water ad libitum during the treatment period; 2 hours for AA and 4 hours for PMA. The mice were sacrificed by cervical dislocation and a 6 mm diameter disc of tissue punched from both the treated and untreated ears. The tissue biopsies were immediately weighed and the weight increase of the treated ear relative to the weight of the untreated ear determined.
At the termination of the experiment, the amount of radioactivity in both the treated and untreated ear biopsies was determined and the increased amount of radioactivity in the treated tissue relative to the amount of radioactive in the untreated tissue determined.
As a measure of PMN infiltration, the amount of myeloperoxidase (MPO) activity in the same tissues was determined. The tissue biopsies were homogenized into 1 ml 0.5% hexadecyltrimethylammonium bromide and centrifuged for 45 min. at 1200×g. Aliquots 40 μl, of the supernatant phases were assayed for MPO activity by a colorimetric method devised by H. Dougherty for automated Titertek analysis. The MPO activity is expressed as the OD450 of the treated ear homogenate minus the OD450 of the non-treated ear homogenate.
All of the data are expressed as the mean±SEM, N=5 mice/group.

[2] = test system: inflammatory responses elicited by topically applied phorbol myristate acetate (PMA) or topically applied archidonic acid (AA) in mouse ear; conditions: previously established, in words; cited from earlier work

OCc1ccccc1/C=C/Cc1cc2c(cc1O)CCO2 [A, 5-hydroxy-6-(2-hydroxymethylcinnamyl)-2,3-dihydrobenzofuran]
Edema (% inhibition) ([1]; dosage 50 μg): 37%
Edema (% inhibition) ([1]; dosage 150 μg): 54%
Edema (% inhibition) ([1]; dosage 300 μg): 88%

COc1ccc2c(c1)c(CC(=O)O)c(C)n2C(=O)c1ccc(Cl)cc1 [Indomethacin]
activity in the topical mouse ear assay [2]: active
Edema (% inhibition) ([1]; dosage 150 μg): 51%

C[C@@H]1C[C@H]2[C@@H]3CCC4=CC(=O)C=C[C@]4(C)[C@@]3(F)[C@@H](O)C[C@]2(C)[C@@]1(O)C(=O)CO [Dexamethasone]
activity in the topical mouse ear assay [2]: active
Edema (% inhibition) ([1]; dosage 5 μg): 60%
